Reference: US20250025048A1, “Liver Viscoelastic Changes and Biomarkers for Cancer Invasion” (The Board of Trustees of the Leland Stanford Junior …, priority 2021, published 2025)

Tests used:
[1] = system: livers from HiAD-fed mice; assay: Atomic force microscopy (AFM) indentation of livers, hysteresis between approach and retraction curves; format: in vivo; conditions: 60 mg/kg daily, i.p., FIG. 1B
From the text: FIGS. 1A-1B. ECM viscoelasticity increases in an advanced glycation end product (AGE) and hepatocyte RAGE-dependent manner. Schematic presentation of the methods used to assess mechanical responses to indentation by an atomic force microscope (AFM) probe. Force-distance curve is generated when the probe indents the sample until a defined force is reached (blue, approach curve) and the cantilever is retracted (red, retraction curve). The hysteresis between the approach and retraction curves indicates sample viscosity (FIG. 1A).
As shown in FIGS. 1A-1B, extracellular matrix (ECM) viscoelasticity increases in an AGE and hepatocyte RAGE-dependent manner. Mechanical responses to indentation were assessed by an atomic force microscope (AFM) probe. A force-distance curve is generated when the probe indents the sample until a defined force is reached and the cantilever is retracted. The hysteresis between the approach and retraction curves indicates sample viscosity (FIG. 1A).

[2] = system: livers from HiAD-fed mice; assay: Rheometry of livers (dynamic time sweep and stress relaxation test); format: in vivo; conditions: 600 s; for storage modulus (stiffness, G'): 2% constant strain, 1 radian/s, FIG. 3B; for faster relaxation times (high viscoelasticity) of HiAD livers, stress relaxation test: initial 10% strain, FIGS. 3C-3D
Protocol: FIGS. 3A-3D. […] The plate was lowered to touch the sample and 100˜300 Pa of initial force was applied. Dynamic time sweep test (2% constant strain, oscillation frequency 1 radian/s, measurements taken for 600 s) was done first to collect the shear storage modulus (stiffness, G′) and loss modulus (G″) (FIG. 3A). […] Stress relaxation test was performed for 600 s with an initial 10% strain. […] Stress was normalized by the initial stress (FIG. 3C). Quantification of timescale at which the stress is relaxed to half its original value (τ1/2), from the tests in FIG. 3C (FIG. 3D). (N=2-4, Data are represented as mean±SEM; one way ANOVA followed by post-hoc Tukey test *p<0.05, **p<0.01, ***p<0.001).
The plate was lowered to touch the sample and 100˜300 Pa of initial force was applied. Dynamic time sweep test (2% constant strain, oscillation frequency 1 radian/s, measurements taken for 600 s) was done first to collect the shear storage modulus (stiffness, G′) and loss modulus (G″) (FIG. 3A). […] A stress relaxation test was performed for 600 s with an initial 10% strain. […] Stress was normalized by the initial stress (FIG. 3C). Quantification of timescale at which the stress is relaxed to half its original value (τ1/2), from the tests in FIG. 3C (FIG. 3D). (N=2-4, Data are represented as mean±SEM; one way ANOVA followed by post-hoc Tukey test *p<0.05, **p<0.01, ***p<0.001).

SMILES	hysteresis area between approach and retraction force curves (sample viscosity) [1]	storage modulus (stiffness, G') [2]	faster relaxation times (high viscoelasticity) of HiAD livers, stress relaxation test [2]
Cc1ncc(CO)c(CN)c1O [PM, pyridoxamine]	reduced	did not change	reversed
Cc1sc[n+](CC(=O)c2ccccc2)c1C.[Cl-] [alagebrium, 3-phenacyl-4,5-dimethylthiazolium chloride]		did not change	reversed
